Source: ChEMBL document CHEMBL1201862, “PubChem BioAssay data set” (2004)
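Results reflect a 48-hour exposure of cells in 96-well plates to compound at five concentrations. Abbreviation: GI50, concentration required for 50% inhibition of growth.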 Calls of active or inactive are those of the source. Rule as the data show it: active = GI50 up to about 1.1 µM and inactive = higher.

Columns and labels:
Test in all cases: NCI anticancer screen, dose series, 48 h
DMS-273 = tested on: DMS-273
RXF 631 = tested on: RXF 631
M19-MEL = tested on: M19-MEL
KM-20L2 = tested on: KM-20L2
LXFL 529 = tested on: LXFL 529
MDA-N = tested on: MDA-N
T47D = tested on: T47D
BT-549 = tested on: BT-549
Hs-578T = tested on: Hs-578T

Measured: GI50

CC(=O)NNc1nc(C)c(C(=O)/C=C/c2ccc(NC(C)=O)cc2)s1
inactive: DMS-273 > 100 µM | RXF 631 > 100 µM | M19-MEL > 100 µM | KM-20L2 > 100 µM

CCOc1ccccc1NC(=O)CC(C(=O)OC)C(=O)C(=O)OC (configuration not stated)
inactive: DMS-273 > 100 µM | RXF 631 > 100 µM | LXFL 529 > 100 µM | M19-MEL > 100 µM | KM-20L2 > 100 µM

N=C(N)NS(=O)(=O)c1ccc(NC(=O)c2cccn3c(=O)c4ccccc4nc23)cc1
inactive: DMS-273 32.1 µM | RXF 631 41.4 µM | LXFL 529 37.5 µM | M19-MEL 31.4 µM | KM-20L2 13.6 µM

O=S(=O)(SCc1ccccc1)C(c1ccccc1)c1ccccc1
inactive: DMS-273 27.4 µM | LXFL 529 26.5 µM | M19-MEL 32.4 µM | KM-20L2 20.6 µM

C(=C\c1cc(CCc2nc3ccccc3[nH]2)n[nH]1)/c1ccccc1
inactive: RXF 631 > 100 µM | M19-MEL > 100 µM | KM-20L2 > 100 µM

CCN(CC)CCC(=O)/C=C/c1ccc(C)cc1
inactive: DMS-273 11.2 µM | RXF 631 16.4 µM | LXFL 529 7.67 µM | M19-MEL 12.8 µM | KM-20L2 15.6 µM

COC(=O)C(CC(=O)c1ccccc1)c1ccccc1NC(C)=O (configuration not stated)
inactive: RXF 631 > 100 µM | LXFL 529 > 100 µM | M19-MEL > 100 µM | KM-20L2 > 100 µM

CCOC(=O)NC1C2CC(=O)C(O2)C1OCc1ccccc1 (configuration not stated)
inactive: DMS-273 > 100 µM | RXF 631 > 100 µM | LXFL 529 > 100 µM | M19-MEL > 100 µM | KM-20L2 > 100 µM

[O-][S+]1c2ccccc2NC(c2ccc3ccccc3c2)CC1c1ccccc1 (configuration not stated)
inactive: DMS-273 29.5 µM | LXFL 529 15.7 µM | M19-MEL 20.9 µM | KM-20L2 22.9 µM

CC(=O)Nc1ccc(/C=c2\sc3nnc(CCC(=O)Nc4ccccc4Cl)n3c2=O)cc1
inactive: RXF 631 32.9 µM | LXFL 529 30 µM | M19-MEL 37.4 µM

O=c1cc(-c2ccccc2)[nH]c2c(Cl)cccc12
inactive: DMS-273 7.11 µM | RXF 631 51.9 µM | LXFL 529 31.5 µM | M19-MEL 9.18 µM | KM-20L2 14.4 µM

C=C1C(=O)OC2CC(C)C3C=CC(=O)C3CC12 (configuration not stated)
inactive: MDA-N 2.07 µM | DMS-273 3.54 µM | RXF 631 3.88 µM | LXFL 529 1.26 µM | M19-MEL 2.72 µM | T47D 2.34 µM | KM-20L2 3.52 µM | BT-549 2.64 µM | Hs-578T 1.85 µM

COc1cc2c(cc1OC)C1[C@@H](c3ccccc3)OCN1CC2 (some centres not stated)
inactive: DMS-273 > 100 µM | RXF 631 > 100 µM | LXFL 529 > 100 µM | M19-MEL > 100 µM | KM-20L2 > 100 µM

C=CCOCCCC(=O)C(=[N+]=[N-])C(=O)OC
inactive: RXF 631 > 100 µM | LXFL 529 > 100 µM | M19-MEL > 100 µM | KM-20L2 > 100 µM

COc1ccc2nc(C(=O)c3ccccc3)c(C)cc2c1
inactive: DMS-273 3.08 µM | RXF 631 8.18 µM | LXFL 529 9.25 µM | M19-MEL 7.82 µM | KM-20L2 3.18 µM

CN(C)c1ccc(/C=C2\N=C(c3ccc(N)cc3)OC2=O)cc1
inactive: DMS-273 > 100 µM | RXF 631 > 100 µM | LXFL 529 > 100 µM | M19-MEL > 100 µM | KM-20L2 > 100 µM

CC1CC2(S(=O)(=O)c3ccccc3)ON1CC2S(=O)(=O)c1ccccc1 (configuration not stated)
inactive: DMS-273 > 100 µM | RXF 631 > 100 µM | LXFL 529 > 100 µM | M19-MEL > 100 µM | KM-20L2 > 100 µM

O=C(CC/C(CC(=O)c1ccc(Br)cc1)=N\O)Nc1ccc(Cl)c(Cl)c1
inactive: DMS-273 82.8 µM | LXFL 529 47.3 µM | M19-MEL 64.7 µM | KM-20L2 > 100 µM

N#CC(C(=O)CCC(=O)Nc1ccc(Cl)cc1)c1ccccc1Cl (configuration not stated)
inactive: DMS-273 > 100 µM | RXF 631 > 100 µM | LXFL 529 13.4 µM | M19-MEL > 100 µM | KM-20L2 17.1 µM

CCCC(=O)c1c(NOC2OCC(OC(C)=O)C(OC(C)=O)C2OC(C)=O)nc(OC)n(C)c1=O (configuration not stated)
inactive: DMS-273 > 100 µM | RXF 631 > 100 µM | LXFL 529 > 100 µM | M19-MEL > 100 µM | KM-20L2 > 100 µM

Cc1cccc2c3ccc4c(c3n(C)c12)C(=O)C=CC4=O
inactive: DMS-273 76 µM | RXF 631 > 100 µM | LXFL 529 > 100 µM | M19-MEL > 100 µM

COc1ccc(/C(Cl)=C(/c2ccc(O)cc2)c2ccc(OCCN(C)C)cc2)cc1
inactive: DMS-273 11.1 µM | RXF 631 12.4 µM | LXFL 529 10.8 µM | M19-MEL 3.72 µM | KM-20L2 3.1 µM

O=C(O)CC(O)(c1ccccc1C(=O)O)c1cccc2ccccc12 (configuration not stated)
inactive: DMS-273 > 100 µM | RXF 631 > 100 µM | LXFL 529 > 100 µM | M19-MEL > 100 µM
